According to patent publication US9686989B2, “Synergistic combination of a flurochloridone compound and zinc pyrithione for dry film protection” (Rohm and Haas Company, priority 2013, dated 2017):

Tested on: Chlorella sp. ATCC 7516
Assay: Algal efficacy testing of dry paint film (modified ASTM 5589, 6-well plates)
Type: cell-based
Conditions: 672 h, 4 weeks, pass level ≧75% inhibition
Experimental: Slurries containing 33% antimicrobial active ingredient (flurochloridone) were post added to a white, acrylic/silicone based outdoor paint free of biocides to give a total active ingredient concentration of 10000 and 1000 ppm respectively. KATHON™ 893T (100% OIT) was post added to a white, acrylic/silicone based outdoor paint free of biocides to give a total active ingredient concentration of 10000 and 1000 ppm respectively. These paints were then diluted with an antimicrobial free acrylic/silicone based paint and mixed to prepare targeted concentrations of antimicrobial compounds for the testing. The total biocides concentrations tested were 125, 250, 500, 1000, 2000 and 5000 ppm. After biocides addition or dilution, the paints were mixed 90 seconds with the horse power shaker (AXEL 75M3372/Agitateur SO-10MI) until uniformity was achieved. […]
Each well that contains a tested coupon was inoculated with 1750 μl of algal suspensions (1×10^6 cfu/ml) making sure that the whole surface (paint film as well as the agar surrounding it) was evenly covered. […] The total area inhibited was evaluated at the end of each week according to percent area covered in 5% increments
At the end of the four week incubation period, the samples were scored for percent inhibition regarding color intensity compared to the blank sample. […]
The SI is calculated based on F. C. […]

| SMILES | inhibition at 2000 ppm (total conc 2000 ppm in paint) [%] | inhibition at 5000 ppm (total conc 5000 ppm in paint) [%] |
| --- | --- | --- |
| CCCCCCCCn1sccc1=O [OIT, 2-n-octyl-4-isothiazolin-3-one] | 65 |  |
| O=C1C(Cl)C(CCl)CN1c1cccc(C(F)(F)F)c1 (centres unmarked) [Flurochloridone, 3-chloro-4-(chloromethyl)-1-[3-(trifluoromethyl)phenyl]-2-pyrrolidinone] |  | 90 |
